Assays:
[1] = molecular target: Mitogen-activated protein kinase 14 (Homo sapiens, UniProt Q16539); assay: Inhibition of p38alpha MAP kinase (unknown origin) using GFP-ATF2 as substrate after 1 hr by TR-FRET assay
[2] = molecular target: Mitogen-activated protein kinase 1 (Homo sapiens, UniProt P28482); assay: Inhibition of ERK2 (unknown origin) using GFP-ATF2 as substrate after 1 hr by TR-FRET assay
[3] = molecular target: Mitogen-activated protein kinase 3 (Homo sapiens, UniProt P27361); assay: Inhibition of ERK1 (unknown origin) using GFP-ATF2 as substrate after 1 hr by TR-FRET assay
Chain of Mitogen-activated protein kinase 3 (P27361 whole entry): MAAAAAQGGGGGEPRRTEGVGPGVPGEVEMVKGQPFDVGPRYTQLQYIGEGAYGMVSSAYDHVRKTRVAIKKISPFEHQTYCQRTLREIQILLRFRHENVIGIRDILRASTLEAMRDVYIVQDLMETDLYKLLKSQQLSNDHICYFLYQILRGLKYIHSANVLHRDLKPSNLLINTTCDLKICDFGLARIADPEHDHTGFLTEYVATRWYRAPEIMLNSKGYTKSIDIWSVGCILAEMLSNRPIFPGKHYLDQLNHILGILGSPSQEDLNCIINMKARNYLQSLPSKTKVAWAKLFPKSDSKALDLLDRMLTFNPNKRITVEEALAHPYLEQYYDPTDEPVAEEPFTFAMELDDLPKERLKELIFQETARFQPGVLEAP

[4] = system: HT-29; assay: Selectivity index, ratio of IC50 for African green monkey Vero cells to IC50 for human HT-29 cells; assay type: functional
[5] = system: Vero; assay: Selectivity index, ratio of IC50 for African green monkey Vero cells to IC50 for human LOXIMVI cells; assay type: functional
[6] = system: Vero; assay: Selectivity index, ratio of IC50 for African green monkey Vero cells to IC50 for human MDA-MB-435 cells; assay type: functional
[7] = system: A549; assay: Antiproliferative activity against human A549 cells assessed as inhibition of cell vaibility after 72 hrs by MTT assay; assay type: functional, cell-based; settings: A549, 72 h
[8] = system: Vero; assay: Selectivity index, ratio of IC50 for African green monkey Vero cells to IC50 for human COLO205 cells; assay type: functional
[9] = system: T47D; assay: Antiproliferative activity against human T47D cells assessed as inhibition of cell vaibility after 72 hrs by MTT assay; assay type: functional, cell-based
[10] = system: MCF7; assay: Selectivity index, ratio of IC50 for African green monkey Vero cells to IC50 for human MCF7 cells; assay type: functional
[11] = Antiproliferative activity against human COLO205 cells assessed as inhibition of cell vaibility after 72 hrs by MTT assay; assay type: functional, cell-based; settings: COLO 205, 72 h
[12] = system: Vero; assay: Selectivity index, ratio of IC50 for African green monkey Vero cells to IC50 for human PC3 cells; assay type: functional
[13] = Antiproliferative activity against human LOXIMVI cells assessed as inhibition of cell vaibility after 72 hrs by MTT assay; assay type: functional, cell-based; settings: LOX IMVI
[14] = system: K562; assay: Antiproliferative activity against human K562 cells assessed as inhibition of cell vaibility after 72 hrs by MTT assay; assay type: functional, cell-based; settings: K562, 72 h
[15] = system: T47D; assay: Selectivity index, ratio of IC50 for African green monkey Vero cells to IC50 for human T47D cells; assay type: functional
[16] = system: PC-3; assay: Antiproliferative activity against human PC3 cells assessed as inhibition of cell vaibility after 72 hrs by MTT assay; assay type: functional, cell-based; settings: PC-3, 72 h
[17] = system: A549; assay: Selectivity index, ratio of IC50 for African green monkey Vero cells to IC50 for human A549 cells; assay type: functional
[18] = system: Vero; assay: Cytotoxicity against African green monkey Vero cells assessed as inhibition of cell viability after 72 hrs by MTT assay; assay type: cell-based; settings: Chlorocebus sabaeus
[19] = system: MDA-MB-435; assay: Antiproliferative activity against human MDA-MB-435 cells assessed as inhibition of cell vaibility after 72 hrs by MTT assay; assay type: functional, cell-based; settings: MDA-MB-435, 72 h
[20] = system: MCF7; assay: Antiproliferative activity against human MCF7 cells assessed as inhibition of cell vaibility after 72 hrs by MTT assay; assay type: functional, cell-based; settings: MCF7, 72 h
[21] = system: HT-29; assay: Antiproliferative activity against human HT-29 cells assessed as inhibition of cell vaibility after 72 hrs by MTT assay; assay type: functional, cell-based; settings: HT-29, 72 h

Chain of Mitogen-activated protein kinase 1 (P28482 whole entry): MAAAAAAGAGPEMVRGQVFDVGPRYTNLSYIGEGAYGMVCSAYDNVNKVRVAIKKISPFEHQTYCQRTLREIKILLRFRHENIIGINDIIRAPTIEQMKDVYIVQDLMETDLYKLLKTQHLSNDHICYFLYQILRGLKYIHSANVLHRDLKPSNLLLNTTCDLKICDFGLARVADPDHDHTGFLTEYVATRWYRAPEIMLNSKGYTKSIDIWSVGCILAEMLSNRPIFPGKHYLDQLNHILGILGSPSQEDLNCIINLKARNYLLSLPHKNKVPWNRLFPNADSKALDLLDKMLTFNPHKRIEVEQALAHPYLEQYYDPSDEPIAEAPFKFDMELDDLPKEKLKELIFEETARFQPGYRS
Chain of Mitogen-activated protein kinase 14 (Q16539 whole entry): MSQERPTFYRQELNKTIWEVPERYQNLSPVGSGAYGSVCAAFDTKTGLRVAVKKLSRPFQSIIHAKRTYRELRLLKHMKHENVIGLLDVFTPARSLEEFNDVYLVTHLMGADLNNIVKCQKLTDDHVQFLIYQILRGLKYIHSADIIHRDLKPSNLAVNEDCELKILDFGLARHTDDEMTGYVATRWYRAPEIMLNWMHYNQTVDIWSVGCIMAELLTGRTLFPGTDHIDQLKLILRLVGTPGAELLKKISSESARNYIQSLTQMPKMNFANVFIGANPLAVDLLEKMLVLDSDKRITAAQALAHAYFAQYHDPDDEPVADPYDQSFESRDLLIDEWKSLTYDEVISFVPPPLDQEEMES

IC50 [1] [nM]	IC50 [2] [nM]	IC50 [3] [nM]	SMILES	further results
35	54	65	COc1cccc(N2C(=O)/C(=C/c3ccc(OCC(=O)Nc4ccccc4)cc3)N=C2c2ccccc2)c1	–
66	44	43	COc1cccc(N2C(=O)/C(=C/c3ccc(OCC(=O)Nc4ccccc4C)cc3)N=C2c2ccccc2)c1	–
87	43	20	COc1cccc(N2C(=O)/C(=C/c3ccc(OCC(=O)Nc4cccc(C)c4)cc3)N=C2c2ccccc2)c1	–
4.5	3.2	25	COc1cccc(N2C(=O)/C(=C/c3ccc(OCC(=O)Nc4ccc(C)cc4)cc3)N=C2c2ccccc2)c1	Ratio IC50 [4]: 2.98; Ratio IC50 [5]: 22.81; Ratio IC50 [6]: 75.39; IC50 [7]: 6500 nM; Ratio IC50 [8]: 1.85; IC50 [9]: 670 nM; Ratio IC50 [10]: 46.86; IC50 [11]: 9400 nM; Ratio IC50 [12]: 20.16; IC50 [13]: 760 nM; IC50 [14]: > 100000 nM; Ratio IC50 [15]: 25.88; IC50 [16]: 860 nM; Ratio IC50 [17]: 2.66; IC50 [18]: 17300 nM; IC50 [19]: 230 nM; IC50 [20]: 370 nM; IC50 [21]: 5800 nM
54	4.7	46	COc1cccc(N2C(=O)/C(=C/c3ccc(OCC(=O)Nc4ccccc4OC)cc3)N=C2c2ccccc2)c1	–
6.5	5.4	57	COc1cccc(NC(=O)COc2ccc(/C=C3\N=C(c4ccccc4)N(c4cccc(OC)c4)C3=O)cc2)c1	–
4.3	4.3	76	COc1ccc(NC(=O)COc2ccc(/C=C3\N=C(c4ccccc4)N(c4cccc(OC)c4)C3=O)cc2)cc1	–
5.6	5.3	87	COc1cccc(N2C(=O)/C(=C/c3ccc(OCC(=O)Nc4ccccc4Cl)cc3)N=C2c2ccccc2)c1	–
3.7	3.4	89	COc1cccc(N2C(=O)/C(=C/c3ccc(OCC(=O)Nc4cccc(Cl)c4)cc3)N=C2c2ccccc2)c1	–
4.6	4.6	95	COc1cccc(N2C(=O)/C(=C/c3ccc(OCC(=O)Nc4ccc(Cl)cc4)cc3)N=C2c2ccccc2)c1	–
354	23	23	COc1ccc(N2C(=O)/C(=C/c3ccc(OCC(=O)Nc4ccccc4)cc3)N=C2c2ccccc2)cc1	–
56	23	32	COc1ccc(N2C(=O)/C(=C/c3ccc(OCC(=O)Nc4ccccc4C)cc3)N=C2c2ccccc2)cc1	–
77	78	89	COc1ccc(N2C(=O)/C(=C/c3ccc(OCC(=O)Nc4cccc(C)c4)cc3)N=C2c2ccccc2)cc1	–
345	43	23	COc1ccc(N2C(=O)/C(=C/c3ccc(OCC(=O)Nc4ccc(C)cc4)cc3)N=C2c2ccccc2)cc1	–
34	89	43	COc1ccc(N2C(=O)/C(=C/c3ccc(OCC(=O)Nc4ccccc4OC)cc3)N=C2c2ccccc2)cc1	–
23	21	21	COc1ccc(N2C(=O)/C(=C/c3ccc(OCC(=O)Nc4cccc(OC)c4)cc3)N=C2c2ccccc2)cc1	–
345	2.3	23	COc1ccc(NC(=O)COc2ccc(/C=C3\N=C(c4ccccc4)N(c4ccc(OC)cc4)C3=O)cc2)cc1	–
4.7	3.5	24	COc1ccc(N2C(=O)/C(=C/c3ccc(OCC(=O)Nc4ccccc4Cl)cc3)N=C2c2ccccc2)cc1	Ratio IC50 [4]: 2.93; Ratio IC50 [5]: 101.54; Ratio IC50 [6]: 264; IC50 [7]: 4900 nM; Ratio IC50 [8]: 2.93; IC50 [9]: 500 nM; Ratio IC50 [10]: 24.9; IC50 [11]: 4500 nM; Ratio IC50 [12]: 13.33; IC50 [13]: 130 nM; IC50 [14]: > 100000 nM; Ratio IC50 [15]: 26.4; IC50 [16]: 990 nM; Ratio IC50 [17]: 2.69; IC50 [18]: 13200 nM; IC50 [19]: 50 nM; IC50 [20]: 530 nM; IC50 [21]: 4500 nM
4.5	7	35	COc1ccc(N2C(=O)/C(=C/c3ccc(OCC(=O)Nc4cccc(Cl)c4)cc3)N=C2c2ccccc2)cc1	–
44	4.5	47	COc1ccc(N2C(=O)/C(=C/c3ccc(OCC(=O)Nc4ccc(Cl)cc4)cc3)N=C2c2ccccc2)cc1	–
–	–	–	CNC(=O)c1cc(Oc2ccc(NC(=O)Nc3ccc(Cl)c(C(F)(F)F)c3)cc2)ccn1 [SORAFENIB]	IC50 [7]: 3190 nM; IC50 [9]: 610 nM; IC50 [11]: 870 nM; IC50 [13]: 4250 nM; IC50 [14]: 1220 nM; IC50 [16]: 4130 nM; IC50 [19]: 1670 nM; IC50 [20]: 780 nM; IC50 [21]: 390 nM
